Assay results taken from patent US10766882B2, “1,2-naphthoquinone based derivative and method of preparing the same” (YUNGJIN PHARM. CO., LTD., priority 2013, dated 2020).

Legend:
[1] = target: NQO1 protein (Homo sapiens, UniProt P15559); assay: NQO1 activity measurement (cytochrome C reduction); assay type: biochemical; conditions: 5 ng NQO1 protein, 200 μM NADH, 77 μM cytochrome C, 37° C., absorbance 550 nm for 10 minutes
[2] = system: C57BLKS/J db/db mice; assay: Glucose level and glycosylated hemoglobin (Hb1Ac) in fasted diabetic mice (db/db); assay type: in vivo; conditions: Exp. Ex. 5, FIG. 9: 10 week-old db/db mice, 40, 80, 120 mg/kg oral, fasted for 14 hours, vs 0.1% SLS controls
Description: 10 week-old C57BLKS/J db/db mice having genetic obesity characteristics available from ORIENTBIO were prepared. Two mice were raised in each polycarbonate breeding cage (200 W×260 L×130H (mm), Three-shine) in which temperature was 22 to 24° C., relative humidity was 30 to 50%, illuminance was 150 to 300 lux, night and day were 12 hours, and exhaust was performed at 10 to 15 air changes per hour. As a feed, low fat diet (11.9 kcal % fat, 5053, Labdiet) manufactured by ORIENTBIO was used. The feed was contained in a feeder and free intake was allowed. As drinking water, water, which was contained in a 250 mL polycarbonate based bottle, purified through a filter and a sterilizer was used and free intake was allowed.
The compound according to Example 1 synthesized in the present invention was orally administered to three C57BLKS/J db/db mice in amounts of 40 mg/kg, 80 mg/kg, and 120 mg/kg, respectively. For administration, a disposable syringe fitted with a sonde for oral administration was used and 10 ml/kg of the compound was orally administered into the stomach. As controls, three C57BLKS/J db/db mice were administered 0.1% SLS in an amount of 120 mg/kg in the same manner as described above. After administration, the mice were fasted for 14 hours and glucose levels and glycosylated hemoglobin thereof were measured. Results are illustrated in FIG. 9 below.

[3] = system: C57BL/6J Lep ob/ob mice; assay: Weight loss effects in obese mice (ob/ob); assay type: in vivo; conditions: vs 0.1% SLS controls
Method in brief: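 Male-unspecified C57BL/6J Lep ob/ob mice (6–15 weeks old, n=3 per group) on low-fat chow received compound by daily oral gavage (40–150 mg/kg, 10 ml/kg) for 6 days to 2 weeks, with 0.1% SLS vehicle as control. Body weight was recorded daily, gain calculated from day 1 to the day before termination, and food intake measured twice weekly.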

[4] = Exp. Ex. 3-1, FIG. 1: 10 week-old ob/ob mice, 40, 80, 120 mg/kg oral once every day, two weeks
[5] = Exp. Ex. 3-2, FIG. 2: 6 week-old ob/ob mice, 100 mg/kg oral
[6] = Exp. Ex. 3-10, FIG. 13: 6 week-old ob/ob mice, 100 mg/kg oral, two weeks
[7] = Exp. Ex. 3-11, FIG. 14: 6.5 week-old ob/ob mice, 100 mg/kg oral, one week
[8] = Exp. Ex. 3-12, FIG. 15: 6 week-old ob/ob mice, 100 mg/kg oral, two weeks
[9] = Exp. Ex. 3-13, FIG. 16: 6 week-old ob/ob mice, 100 mg/kg oral, one week

NQO1 protein, sequence (P15559 whole entry, species assumed): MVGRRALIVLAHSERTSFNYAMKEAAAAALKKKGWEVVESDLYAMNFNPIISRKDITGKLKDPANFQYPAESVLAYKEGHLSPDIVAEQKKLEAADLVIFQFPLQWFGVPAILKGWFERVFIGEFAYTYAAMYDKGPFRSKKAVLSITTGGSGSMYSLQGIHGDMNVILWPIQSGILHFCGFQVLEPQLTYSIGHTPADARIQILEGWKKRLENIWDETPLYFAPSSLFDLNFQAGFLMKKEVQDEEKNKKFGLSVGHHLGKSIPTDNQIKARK

## CC(C)c1nc2c([nH]1)C(=O)C(=O)c1ccccc1-2 [Example 1, 2-isopropyl-1H-naphtho[2,1-d]imidazole-4,5-dione]
[1]
  NQO1 activity (5 μM, [nmol cytochrome C reduced/min/μg protein]): 177 nmol cytochrome C reduced/min/μg protein
[2]
  glucose level: significantly decreased
  glycosylated hemoglobin (Hb1Ac): significantly decreased
[3]; [4]
  intake amount: significantly decreased
  weight change: significantly decreased
  weight increase ratio: significantly decreased
[3]; [5]
  intake amount: significantly decreased
  weight change: significantly decreased
  weight increase ratio: significantly decreased
[3]; [6]
  intake amount: significantly decreased in some sections
  weight change: significantly decreased in some sections
  weight increase ratio: significantly decreased in some sections
[3]; [7]
  intake amount: significantly decreased in some sections
  weight change: significantly decreased in some sections
  weight increase ratio: significantly decreased in some sections
[3]; [8]
  intake amount: significantly decreased in some sections
  weight change: significantly decreased in some sections
  weight increase ratio: significantly decreased in some sections
[3]; [9]
  intake amount: significantly decreased in some sections
  weight change: significantly decreased in some sections
  weight increase ratio: significantly decreased in some sections
